Source: patent US8802597B2, “Herbicidal pyrimidines” (E I du Pont de Nemours and Company, priority 2003, dated 2014)

What was measured:
Assay in all cases: Test A pre/postemergence
Assay type in all cases: in vivo
[1] = tested on: redroot pigweed (Amaranthus retroflexus)
Method in brief: (§1)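 After planting in loam and sand, species received test chemical as preemergence soil spray; postemergence spray went on 2–10 cm plants at 1–2 leaves at the same time. Evaluation: visual injury, ~10 d, 0 no effect to 100 complete control.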

[2] = tested on: crabgrass (Digitaria sanguinalis)
Method in brief: as §1

[3] = tested on: velvetleaf (Abutilon theophrasti)
Method in brief: as §1

[4] = tested on: morningglory (Ipomoea spp.)
Method in brief: as §1

[5] = tested on: barnyardgrass (Echinochloa crus-galli)
Method in brief: as §1

[6] = tested on: giant foxtail (Setaria faberi)
Method in brief: as §1

[7] = Postemergence, 125 g ai/ha, 0 to 100 scale (0 no effect, 100 complete control)
[8] = Postemergence, 500 g ai/ha, 0 to 100 scale (0 no effect, 100 complete control)
[9] = Preemergence, 125 g ai/ha, 0 to 100 scale where 0 is no effect and 100 is complete control, approximately ten days
[10] = Preemergence, 500 g ai/ha, 0 to 100 scale where 0 is no effect and 100 is complete control, approximately ten days

| Compound | Plant response rating, Pigweed [1, 7] | Plant response rating, Pigweed [1, 8] | Plant response rating, Pigweed [1, 9] | Plant response rating, Pigweed [1, 10] | Plant response rating, Crabgrass [2, 7] | Plant response rating, Crabgrass [2, 8] | Plant response rating, Crabgrass [2, 9] | Plant response rating, Crabgrass [2, 10] | Plant response rating, Velvetleaf [3, 7] | Plant response rating, Velvetleaf [3, 8] | Plant response rating, Velvetleaf [3, 9] | Plant response rating, Velvetleaf [3, 10] | Plant response rating, Morningglory [4, 7] | Plant response rating, Morningglory [4, 8] | Plant response rating, Morningglory [4, 9] | Plant response rating, Morningglory [4, 10] | Plant response rating, Barnyardgrass [5, 7] | Plant response rating, Barnyardgrass [5, 8] | Plant response rating, Barnyardgrass [5, 9] | Plant response rating, Barnyardgrass [5, 10] | further results |
| --- | --- | --- | --- | --- | --- | --- | --- | --- | --- | --- | --- | --- | --- | --- | --- | --- | --- | --- | --- | --- | --- |
| COC(=O)c1nc(-c2ccc(C)c(F)c2)nc(N)c1Cl [Compound 86] | 20 | 50 | 0 | 5 | 0 | 0 | 0 | 0 | 70 | 85 | 0 | 10 | 0 | 20 | 0 | 0 | 10 | 30 | 0 | 0 | Plant response rating, Foxtail, Giant [6, 7]: 0; Plant response rating, Foxtail, Giant [6, 8]: 0; Plant response rating, Foxtail, Giant [6, 9]: 0; Plant response rating, Foxtail, Giant [6, 10]: 0 |
| CCOC(=O)Cc1nc(-c2ccc(Cl)cc2)nc(N)c1Cl [Compound 120] | 20 | 35 | 0 | 0 | 0 | 5 | 0 | 0 | 50 | 65 | 0 | 0 | 25 | 55 | 0 | 0 | 10 | 40 | 5 | 15 | Plant response rating, Foxtail, Giant [6, 7]: 0; Plant response rating, Foxtail, Giant [6, 8]: 0; Plant response rating, Foxtail, Giant [6, 9]: 0; Plant response rating, Foxtail, Giant [6, 10]: 0 |
| Cc1ccc(-c2nc(N)c(Br)c(C(=O)O)n2)cc1 [Compound 89] | 50 | 100 | 80 | 100 | 0 | 10 | 0 | 60 | 70 | 95 | 20 | 75 | 0 | 30 | 0 | 0 | 60 | 85 | 0 | 50 | Plant response rating, Foxtail, Giant [6, 7]: 10; Plant response rating, Foxtail, Giant [6, 8]: 45; Plant response rating, Foxtail, Giant [6, 9]: 0; Plant response rating, Foxtail, Giant [6, 10]: 10 |
| Nc1nc(C2CC2)nc(C(=O)OCC2CO2)c1Cl (stereo not drawn) [Compound 140] | 90 | 100 | 90 | 95 | 65 | 80 | 70 | 90 | 90 | 90 | 90 | 95 | 85 | 90 | 90 | 95 | 70 | 90 | 70 | 90 | Plant response rating, Foxtail, Giant [6, 7]: 85; Plant response rating, Foxtail, Giant [6, 8]: 90; Plant response rating, Foxtail, Giant [6, 9]: 40; Plant response rating, Foxtail, Giant [6, 10]: 85 |
